ChEMBL document CHEMBL4364264, “Tetrazole hybrids with potential anticancer activity” (Eur J Med Chem, 2019)
Values after ≈ are worked out from the molar mass of the structure shown.

Assays:
SiHa = assay: Cytotoxicity against human SiHa cells; assay type: functional
MDA-MB-231 [1] = assay: Cytotoxicity against human MDA-MB-231 cells; assay type: functional
PANC-1 = assay: Cytotoxicity against human PANC1 cells; assay type: functional
HCT-116 [2] = assay: Cytotoxicity against human HCT116 cells; assay type: functional, cell-based
PC-3 [3] = assay: Cytotoxicity against human PC3 cells; assay type: functional, cell-based
MCF7 [4] = assay: Cytotoxicity against human MCF7 cells; assay type: functional, cell-based
HCT-116 [5] = assay: Cytotoxicity against human HCT116 cells after 96 hrs by MTT assay; assay type: functional, cell-based; details: HCT-116, 96 h
HepG2 [6] = assay: Cytotoxicity against human HepG2 cells after 96 hrs by MTT assay; assay type: functional, cell-based; details: HepG2, 96 h
SK-BR-3 = assay: Cytotoxicity against human SKBR3 cells; assay type: functional, cell-based
Caco-2 = assay: Cytotoxicity against human Caco2 cells; assay type: functional, cell-based
HeLa [7] = assay: Cytotoxicity against human HeLa cells; assay type: functional, cell-based
MCF7 [8] = assay: Growth inhibition of human MCF7 cells by microtiter plate assay; assay type: functional
DU-145 = assay: Growth inhibition of human DU145 cells by microtiter plate assay; assay type: functional
MDA-MB-231 [9] = assay: Growth inhibition of human MDA-MB-231 cells by microtiter plate assay; assay type: functional
HepG2 [10] = assay: Cytotoxicity against human HepG2 cells
HT-29 = assay: cells; details: Homo sapiens, HT-29, 48 h
Description: Antiproliferative activity against human HT-29 cells after 48 hrs by MTT assay

PC-3 [11] = assay: cells; details: Homo sapiens, PC-3, 48 h
HepG2 [12] = assay: Growth inhibition of human HepG2 cells; assay type: functional
HeLa [13] = assay: Growth inhibition of human HeLa cells; assay type: functional
MCF7 [14] = assay: Growth inhibition of human MCF7 cells; assay type: functional

`O=C(O)c1cn(C2CC2)c2cc(N3CCN(C(=O)CCSc4nnnn4-c4ccccc4)CC3)c(F)cc2c1=O` showed a GI50 (SiHa) of 0.085 to 1.15 µM, a GI50 (MDA-MB-231 [1]) of 0.085 to 1.15 µM and a GI50 (PANC-1) of 0.085 to 1.15 µM.
For `COc1cc(/C=C/C(=O)c2ccc(Br)cc2)ccc1Oc1nnnn1-c1ccccc1`, the IC50 (HCT-116 [2]) was 2.5 to 7 µg/mL (≈ 5.24 to 14.7 µM) and the IC50 (PC-3 [3]) was 2.5 to 7 µg/mL (≈ 5.24 to 14.7 µM).
With `O=C(O)c1cn(C2CC2)c2cc(N3CCN(C(=O)CCSc4nnnn4-c4ccc(C(F)(F)F)cc4)CC3)c(F)cc2c1=O` the GI50 (SiHa) was 0.066 to 1.3 µM, the GI50 (MDA-MB-231 [1]) was 0.066 to 1.3 µM and the GI50 (PANC-1) was 0.066 to 1.3 µM.
Compound `COc1cc(/C=C/C(=O)c2cccs2)ccc1Oc1nnnn1-c1ccccc1` has an IC50 (MCF7 [4]) of 2.9 µg/mL, an IC50 (HCT-116 [2]) of 2.5 µg/mL (≈ 6.18 µM) and an IC50 (PC-3 [3]) of 5 µg/mL (≈ 12.4 µM).
`CC[C@H](CC[C@@H](C)[C@H]1CC[C@H]2[C@H]3[C@H](CC[C@]12C)[C@@]1(C)CCCCC1=Cc1nnnn13)C(C)C` gave an IC50 (HCT-116 [5]) of 4.58 µM and an IC50 (HepG2 [6]) of 4.82 µM.
`COc1cc(/C=C/C(=O)c2ccc(C)cc2)ccc1Oc1nnnn1-c1ccccc1` showed an IC50 (HCT-116 [2]) of 2.5 to 7 µg/mL (≈ 6.06 to 17 µM) and an IC50 (PC-3 [3]) of 2.5 to 7 µg/mL (≈ 6.06 to 17 µM).
For `COc1cccc(C2C(c3nnn[nH]3)=C(N)Oc3ccc4ccccc4c32)c1OC` (stereo not given), the IC50 (MCF7 [4]) was 15 to 87 µM, the IC50 (SK-BR-3) was 15 to 87 µM and the IC50 (Caco-2) was 15 to 87 µM. The IC50 (HeLa [7]) was 15 to 87 µM.
For `CCc1cc2c(cc1O)CC[C@@H]1[C@@H]2CC[C@]2(C)[C@@H](Cc3nnn(C)n3)CC[C@@H]12`, the GI50 (MCF7 [8]) was 0.8 to 47 µM, the GI50 (DU-145) was 0.8 to 47 µM and the GI50 (MDA-MB-231 [9]) was 0.8 to 47 µM.
For `CCn1cc(C(=O)O)c(=O)c2cnc(N3CCN(C(=O)CCSc4nnnn4-c4ccc(OC)c(OC)c4OC)CC3)nc21`, the GI50 (SiHa) was 0.066 to 1.3 µM, the GI50 (MDA-MB-231 [1]) was 0.066 to 1.3 µM and the GI50 (PANC-1) was 0.066 to 1.3 µM.
`COc1cccc2c1C(=O)c1c(O)c3c(c(O)c1C2=O)C[C@@](O)(C(=O)CO)C[C@@H]3O[C@H]1C[C@H](N)[C@H](O)[C@H](C)O1` [DOXORUBICIN] was tested, and the IC50 (HepG2 [10]) was 4 µg/mL (≈ 7.36 µM), the IC50 (HCT-116 [5]) was 2.6 µM and the IC50 (HepG2 [6]) was 2.85 µM. The IC50 (HT-29) was 2.24 µM and the IC50 (PC-3 [11]) was 3.86 µM.
`CCn1cc(C(=O)O)c(=O)c2cnc(N3CCN(C(=O)CCSc4nnnn4-c4ccc(Br)cc4)CC3)nc21` was tested, and the GI50 (SiHa) was 0.08 µM, the GI50 (MDA-MB-231 [1]) was 0.22 µM and the GI50 (PANC-1) was 0.07 µM.
`COc1cc(/C=C/C(=O)c2ccco2)ccc1Oc1nnnn1-c1ccccc1` showed an IC50 (HCT-116 [2]) of 2.5 to 7 µg/mL (≈ 6.44 to 18 µM) and an IC50 (PC-3 [3]) of 2.5 to 7 µg/mL (≈ 6.44 to 18 µM).
`NC1=C(c2nnn[nH]2)C(c2ccccc2F)c2c(ccc3ccccc23)O1` (stereo not given) gave an IC50 (MCF7 [4]) of 15 to 87 µM, an IC50 (SK-BR-3) of 15 to 87 µM and an IC50 (Caco-2) of 15 to 87 µM. The IC50 (HeLa [7]) was 15 to 87 µM.
`Cc1ccc(-c2nn(-c3ccccc3)cc2-c2nnn(CC(=O)O)n2)cc1` showed an IC50 (HT-29) of 7.23 to 48.3 µM and an IC50 (PC-3 [11]) of 7.23 to 48.3 µM.
Work on `CCc1cc2c(cc1OS(N)(=O)=O)CC[C@@H]1[C@@H]2CC[C@]2(C)[C@@H](Cc3nnnn3C)CC[C@@H]12` yielded a GI50 (MCF7 [8]) of 0.34 to 0.55 µM, a GI50 (DU-145) of 0.34 to 0.55 µM and a GI50 (MDA-MB-231 [9]) of 0.34 to 0.55 µM.
In the case of `CCc1ccc(C2C(c3nnn[nH]3)=C(N)Oc3ccc4ccccc4c32)cc1` (stereo not given), the IC50 (MCF7 [4]) is reported as 15 to 87 µM, the IC50 (SK-BR-3) is reported as 15 to 87 µM and the IC50 (Caco-2) is reported as 15 to 87 µM. It also gave an IC50 (HeLa [7]) of 15 to 87 µM.
Compound `O=c1[nH]cc(F)c(=O)[nH]1` [FLUOROURACIL] has an IC50 (MCF7 [4]) of 9.74 to 21.4 µg/mL, an IC50 (SK-BR-3) of 10 to 17 µM and an IC50 (Caco-2) of 10 to 17 µM. The IC50 (HeLa [7]) was 10 to 17 µM, the IC50 (HCT-116 [2]) was 17.3 µg/mL (≈ 133 µM) and the IC50 (PC-3 [3]) was 21.4 µg/mL (≈ 165 µM).
Compound `CN(C)C(=O)NC(c1ccc(Cl)cc1)n1cnnn1` (stereo not given) has a GI50 (HepG2 [12]) of 8.2 to 41 µM, a GI50 (HeLa [13]) of 8.2 to 41 µM and a GI50 (MCF7 [14]) of 8.2 to 41 µM.
`COc1cc(/C=C/C(=O)c2ccccc2OC)ccc1Oc1nnnn1-c1ccccc1` showed an IC50 (HCT-116 [2]) of 2.5 to 7 µg/mL (≈ 5.84 to 16.3 µM) and an IC50 (PC-3 [3]) of 2.5 to 7 µg/mL (≈ 5.84 to 16.3 µM).
`CCc1cc2c(cc1OS(N)(=O)=O)CC[C@@H]1[C@@H]2CC[C@]2(C)[C@@H](Cc3nnn[nH]3)CC[C@@H]12` was tested, and the GI50 (MCF7 [8]) was 0.34 to 100 µM, the GI50 (DU-145) was 0.34 to 100 µM and the GI50 (MDA-MB-231 [9]) was 0.34 to 100 µM.
In the case of `O=C(O)c1cn(C2CC2)c2cc(N3CCN(C(=O)CCSc4nnnn4-c4ccc(F)c(F)c4F)CC3)c(F)cc2c1=O`, the GI50 (SiHa) is reported as 0.066 to 1.3 µM, the GI50 (MDA-MB-231 [1]) is reported as 0.066 to 1.3 µM and the GI50 (PANC-1) is reported as 0.066 to 1.3 µM.
Compound `COc1cc(-n2nnnc2SCCC(=O)N2CCN(c3cc4c(cc3F)c(=O)c(C(=O)O)cn4C3CC3)CC2)cc(OC)c1OC` has a GI50 (SiHa) of 0.066 to 1.3 µM, a GI50 (MDA-MB-231 [1]) of 0.066 to 1.3 µM and a GI50 (PANC-1) of 0.066 to 1.3 µM.
For `NC1=C(c2nnn[nH]2)C(c2ccccc2Cl)c2c(ccc3ccccc23)O1` (stereo not given), the IC50 (MCF7 [4]) was 15 to 87 µM, the IC50 (SK-BR-3) was 15 to 87 µM and the IC50 (Caco-2) was 15 to 87 µM. For the same compound, the IC50 (HeLa [7]) was 15 to 87 µM.
`NC1=C(c2nnn[nH]2)C(c2ccc(Cl)cc2)c2c(ccc3ccccc23)O1` (stereo not given) showed an IC50 (MCF7 [4]) of 15 to 87 µM, an IC50 (SK-BR-3) of 15 to 87 µM and an IC50 (Caco-2) of 15 to 87 µM. It also gave an IC50 (HeLa [7]) of 15 to 87 µM.
Compound `O=C(O)Cn1nnc(-c2cn(-c3ccccc3)nc2-c2ccc(Cl)cc2)n1` has an IC50 (HT-29) of 6.43 µM and an IC50 (PC-3 [11]) of 9.83 µM.
Compound `CN(C)C(=O)NC(c1ccccc1)n1cnnn1` (stereo not given) has a GI50 (HepG2 [12]) of 8.2 to 41 µM, a GI50 (HeLa [13]) of 8.2 to 41 µM and a GI50 (MCF7 [14]) of 8.2 to 41 µM.
For `COc1ccc(C2C(c3nnn[nH]3)=C(N)Oc3ccc4ccccc4c32)cc1` (stereo not given), the IC50 (MCF7 [4]) was 15 to 87 µM, the IC50 (SK-BR-3) was 15 to 87 µM and the IC50 (Caco-2) was 15 to 87 µM. It also gave an IC50 (HeLa [7]) of 15 to 87 µM.
